Structures are written as SMILES. The source made the active and inactive calls.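 Rule for the calls: active = z-score above 3 at 5 µM with at least 500 cells counted in the well; inconclusive = wells under 500 cells, flagged as cytotoxic or low count; inactive = the rest.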

The term EC50 denotes the concentration at which the effect is half-maximal.

The test system of this experiment is MIN6 insulin promoter-GFP reporter, high-content imaging. As to the kind of experiment: insulin promoter activators in MIN6 cells, imaging, high-content screening, mouse beta cells (AID 1625).
As to `Cc1ccc(CNc2ccc3c(c2)OCO3)c(C)c1`, the EC50 is > 16 µM (inactive).
For the compound `Cc1n[nH]c(C)c1N1C(=O)c2cccc3c(N4CCCCCC4)ccc(c23)C1=O`, the concentration for a half-maximal effect (EC50) was 9.13 µM.
Then `COc1ccc(C2C(C(C)=O)=C(C)N=c3s/c(=C\c4cc(C)n(C)c4C)c(=O)n32)c(OC)c1` (stereo not drawn), with 8.89 µM; and `CC(=O)Nc1ccc(N=Cc2c(O)c(C(=O)Nc3ccccc3)cc3ccccc23)cc1`, with > 16 µM (inactive).
As to `COc1cc(N2CCCC2)c(OC)cc1/C=C(/C#N)c1cccc(Br)c1`, the EC50 was 4.79 µM.
In the case of `Cc1ccc(/C(C#N)=C\c2ccc(N3CCOCC3)o2)cc1`, the EC50 was > 16 µM (inactive).
With `N#CC(C#N)=C1C=C2C=C(N3CCCCC3)CCC2CC1` (stereo not drawn), the EC50 is 0.643 µM.
As to `CN1CC=C2C(C#N)=C(N)C(C#N)(C#N)C(Cc3ccccc3)C2C1` (stereo not drawn), the EC50 is 11.7 µM (inactive).
The result for `CCN(CC)c1ccc(/C=C(/C#N)c2nc3ccc(C)cc3[nH]2)c(OC(C)C)c1` reads 2.87 µM; that for `CN1CC=C2C(C#N)=C(N)C(C#N)(C#N)C(c3cccc(Cl)c3Cl)C2C1` (stereo not drawn), 11.9 µM (inactive); that for `N#C/C(=C/c1ccc(N2CCOCC2)o1)c1nc2ccccc2[nH]1`, 7.76 µM.
Turning to `Cc1ccc(C(=O)NN2C(=O)/C(=C/c3cn(C)c4ccccc34)SC2=S)cc1`, the EC50 was > 16 µM (inactive).
For the compound `CC(=O)c1c(C)[nH]c(-c2ccccc2)nc1=S`, the EC50 is 9.08 µM.
As to `O=C(O)c1cc(-c2ccc(/C=C3/SC(=S)N(Cc4ccccc4)C3=O)o2)ccc1Cl`, the EC50 was 10.5 µM (inactive).
Consider `COc1ccc(CN=Cc2[nH]c3ccc(Br)c(Cl)c3c2O)cc1`, for which the EC50 was > 16 µM (inactive).
With `N#C/C(=C\c1ccc(N2CCOCC2)o1)c1nc2ccccc2[nH]1`, the EC50 was 3.42 µM.
Consider `CN(C)c1ccc(/C=C2\C(=N)N3C(=NC2=O)Sc2cc(S(C)(=O)=O)ccc23)cc1`, for which the EC50 is > 16 µM (inactive).
With `COc1ccc(C(=O)/C=C/c2ccc(N(C)C)cc2)c(OC)c1`, the EC50 is 6.31 µM.
Then `CC(=O)Nc1sc(/C(C#N)=C/c2ccc(Cl)c(Cl)c2)nc1-c1ccc(C)cc1`, with > 16 µM (inactive); and `CC(=O)c1sc2nc(-c3cccs3)cc(C(F)(F)F)c2c1N`, with 7.56 µM; and `Nc1c(C(=O)C2CC2)sc2nc(-c3ccccc3)cc(C(F)(F)F)c12`, with 8.81 µM.
As for `CCN(CC)c1ccc(C=C(c2nnnn2-c2ccccc2)c2nnnn2-c2ccccc2)cc1`, the EC50 is > 16 µM (inactive).
Consider `Cc1ccc(Nc2nc(Cl)c(C=O)s2)cc1Cl`, for which the EC50 is > 16 µM (inactive).
The result for `Cc1cc2c(C(F)(F)F)cc(=O)oc2c2c1NCCC2` reads > 16 µM (inactive); that for `CN1CC=C2C(C#N)=C(N)C(C#N)(C#N)C(c3ccncc3)C2C1` (stereo not drawn), > 16 µM (inactive); that for `Cc1c2ccccc2nc2c(F)c(NC(C)C)c(F)c(F)c12`, > 16 µM (inactive).
In the case of `O=C(OCCN1C(=O)c2cccc3c(N4CCOCC4)ccc(c23)C1=O)c1ccc(Cl)cc1Cl`, the EC50 was 12.1 µM (inactive).
Regarding `O=C(N=C1SCC(=O)N1c1ccccc1Cl)c1ccccc1`, the EC50 was > 16 µM (inactive).
Then `CCCCn1c(O)c(C(=O)/C=C/c2c[nH]c3ccccc23)c(=O)[nH]c1=O`, with > 16 µM (inactive).
The result for `CN(C)c1ccc(/C=C2\CCC/C(=C\c3ccccc3)C2=O)cc1` reads > 16 µM (inactive).
`C=CCN1C(=O)/C(=C/C=C2/N(CC)c3ccc(S(=O)(=O)N(C)C)cc3N2CC)SC1=S`: the EC50 was > 16 µM (inactive).
Consider `N#C/C(=C\c1ccc(N2CCCCC2)o1)C(=O)Nc1cccc(Br)c1`, for which the EC50 was 0.605 µM.
With `O=[N+]([O-])c1ccc(N/N=C/c2c[nH]c3ccccc23)cc1`, the EC50 is 10.8 µM (inactive).
Take `Nc1c(C(=O)Nc2nccs2)sc2nc(-c3cccs3)cc(C(F)(F)F)c12`: the EC50 was 5.91 µM.
Regarding `CCCCN1C(=O)/C(=C/C=C2\SCCN2C)SC1=S`, the EC50 was 9.18 µM.
On to `Oc1ccc(/C=N/Nc2ccnc3cc(Cl)ccc23)c(O)c1`, for which the EC50 was > 16 µM (inactive).
Consider `CC(C)(C)C(=O)c1sc2nc(-c3cccs3)cc(C(F)(F)F)c2c1N`, for which the EC50 is > 16 µM (inactive).
The result for `CCN1CC=C2C(C#N)=C(N)C(C#N)(C#N)C(CCc3ccccc3)C2C1` (stereo not drawn) reads 8.02 µM; that for `CSc1c(C#N)c(N)nc2sc(C(=O)c3ccc(Cl)c(Cl)c3)c(N)c12`, > 16 µM (inactive); that for `COC(=O)c1cc2c(-c3ccccc3)cc3ccccn3c-2c1C(=O)OC`, > 16 µM (inactive).
For the compound `Cc1ccc(N2C(=O)C3C(C(=O)c4ccccc4)=NN(c4ccccc4)C3C2=O)cc1` (stereo not drawn), the EC50 was 12.6 µM (inactive).
The result for `CC(=O)Oc1ccc2c(c1)Oc1cc(OC(C)=O)ccc1C21OC(=O)c2ccccc21` reads 0.439 µM; that for `CCOC(=O)c1sc2cc([N+](=O)[O-])cc(SCC(C)C)c2c1N`, > 16 µM (inactive).
The result for `CC(=O)c1c(N2CCOCC2)[nH]c(-c2ccccc2)nc1=S` reads 13.5 µM (inactive).
Then `CCOC(=O)N1CCN(/C=C(\C#N)c2nc3ccccc3s2)CC1`, with > 16 µM (inactive).
As for `CCCNc1c(F)c(F)c2c(C)c3ccccc3nc2c1F`, the 50% effective concentration (EC50) was 8.02 µM.
Turning to `CN1CCN(C2=CC3=CC(=C(C#N)C#N)CCC3CC2)CC1` (stereo not drawn), the EC50 is 3.41 µM.
The result for `CN1/C(=C\C=C(/C#N)C(=O)Nc2ccccc2F)C(C)(C)c2ccccc21` reads > 16 µM (inactive); that for `O=C1S/C(=C\c2ccc(N3CCOCC3)o2)C(=O)N1c1ccccc1`, 12.5 µM (inactive).
`N#C/C(=C\c1ccc(N2CCOCC2)o1)C(=O)NCCc1ccccc1`: the EC50 was > 16 µM (inactive).
For the compound `COc1cc2c3nnc(-c4ccccc4)c-3cn(Cc3ccccc3F)c2cc1OC`, the EC50 is 3.09 µM.
In the case of `COc1ccc(/C(O)=C/c2nc3ccc(C(=O)NCCc4cccc(C)c4)cc3[nH]c2=O)cc1OC`, the EC50 is > 16 µM (inactive).
The result for `CCN1/C(=C/C=C/c2oc3ccc4ccccc4c3[n+]2CC)Oc2ccc3ccccc3c21` reads < 0.25 µM; that for `O=C1S/C(=C\c2ccc(N3CCOCC3)o2)C(=O)N1Cc1c(F)cccc1Cl`, 0.976 µM.
For the compound `CC(C)N1CCc2c(sc(NC(=O)c3cc4cc([N+](=O)[O-])ccc4s3)c2C(N)=O)C1`, the EC50 is > 16 µM (inactive).
Consider `C=CCN1C(=O)/C(=C/c2ccc(N3CCOCC3)o2)C(=O)NC1=S`, for which the EC50 was > 16 µM (inactive).
The result for `CCN(CC)c1ccc2cc(-c3nnc(-c4ccccc4)o3)c(=O)oc2c1` reads 2.88 µM; that for `Nc1ccc2c(c1)Cc1cc([N+](=O)[O-])ccc1-2`, 9.53 µM; that for `Cn1c(/C(C#N)=C/c2ccc(-c3ccc(S(N)(=O)=O)cc3)o2)nc2ccccc21`, > 16 µM (inactive).
Turning to `CCCN1CC=C2C(C#N)=C(N)C(C#N)(C#N)C(c3cc(OC)ccc3OC)C2C1` (stereo not drawn), the EC50 is 5.05 µM.
Turning to `CCCCCCN1C=CC(=C/C=C(\C#N)C(=O)OCC)C=C1`, the EC50 is 11 µM (inactive).
Consider `CCN(CC)C(=O)c1sc2nc(-c3cccs3)cc(-c3cccs3)c2c1N`, for which the EC50 is > 16 µM (inactive).
`C/C(=N\Nc1ccc([N+](=O)[O-])cc1)c1cc2ccccc2o1`: the EC50 is > 16 µM (inactive).
As for `C=CCSc1nnc(C)c(/C=C/Nc2ccc(Cl)cc2)n1`, the EC50 was > 16 µM (inactive).
For the compound `Cc1cccc(N=Cc2[nH]c3ccc(Br)c(Cl)c3c2O)c1`, the EC50 is 4.86 µM.
Then `Cc1ccnc(N/C=C(\C#N)c2nc(-c3cccc(Br)c3)cs2)c1`, with > 16 µM (inactive); and `N=c1oc2c3c4c(cc2cc1C(=O)Nc1ccccc1)CCCN4CCC3`, with 0.699 µM.
The result for `Cc1cc(N/N=C/c2ccc([N+](=O)[O-])o2)nc2ccccc12` reads > 16 µM (inactive); that for `O=c1oc2cc(O)ccc2cc1-c1nc2c(s1)CCc1ccccc1-2`, 10.2 µM (inactive); that for `CCCCn1nc(-c2ccccc2)c2nc3ccccc3nc21`, > 16 µM (inactive).
`O=C1S/C(=C\c2ccc(N3CCOCC3)o2)C(=O)N1Cc1ccc(F)cc1`: the EC50 was > 16 µM (inactive).
Then `O=[N+]([O-])c1ccc(N/N=C/c2sc(N3CCOCC3)nc2-c2ccccc2)c(S(=O)(=O)Nc2ccccc2Cl)c1`, with > 16 µM (inactive); and `Cn1c(=O)c(NC2CCCCC2)c2c3c(cccc31)C(=O)c1ccccc1-2`, with 2.67 µM.
The result for `CCN1CCN(C2=CC3=CC(=C(C#N)C#N)CCC3CC2)CC1` (stereo not drawn) reads 2.79 µM.
For `N#C/C(=C\c1ccc(-c2ccc(C(=O)O)cc2)o1)c1nc2ccccc2[nH]1`, the EC50 was > 16 µM (inactive).
Then `CCOC(=O)CC1C(=O)NCCN1c1nc2ccc(C)cn2c(=O)c1/C=C1\SC(=S)N(CC(C)C)C1=O` (stereo not drawn), with 6.84 µM; and `CCCCN(C)C1=CC2=CC(=C(C#N)C#N)CCC2CC1` (stereo not drawn), with < 0.25 µM; and `N#C/C(=C/c1ccc(N2CCCCC2)o1)C(=O)Nc1ccc2ccccc2c1`, with 0.564 µM.
The result for `CN1CCS/C1=C/C=C1/SC(=S)N(Cc2ccccc2)C1=O` reads > 16 µM (inactive); that for `CCCN1C(=O)S/C(=C/c2ccc(N3CCOCC3)o2)C1=O`, 8.06 µM.
In the case of `Cc1oc(C)c2c(=O)ccc3c(c12)OC(N)=C(C#N)C3c1ccc(F)cc1` (stereo not drawn), the EC50 was > 16 µM (inactive).
For `Cc1c(N=C2N=C(NC(=O)c3cccs3)c3ccccc32)c(=O)n(-c2ccccc2)n1C`, the EC50 was 13.9 µM (inactive).
Turning to `CCOc1cc(N(CC)CC)ccc1/C=C(/C#N)c1nc2ccccc2[nH]1`, the EC50 is 4.49 µM.
Turning to `Cc1nn(C)cc1N1C(=O)c2cccc3c(N)ccc(c23)C1=O`, the EC50 is > 16 µM (inactive).
With `O=[N+]([O-])c1ccc(N(c2ccccc2)c2ccccc2)cc1`, the EC50 is > 16 µM (inactive).
For `CCN1C(=O)/C(=C/C=C2\N(CC)c3cc(S(=O)(=O)N(C)C)ccc3N2c2ccccc2)SC1=S`, the EC50 was 6.67 µM.
In the case of `O=C1/C(=C/c2ccc(N3CCOCC3)o2)SC(=Nc2ccccc2)N1CCc1c[nH]c2ccccc12`, the EC50 is 0.702 µM.
In the case of `Cc1oc(C)c2c(=O)ccc3c(c12)OC(N)=C(C#N)C3c1ccccc1` (stereo not drawn), the EC50 is > 16 µM (inactive).

The values are drawn from PubChem BioAssay AID1625 (Sanford-Burnham Center for Chemical Genomics, 2009).
